Assay results published in ChEMBL document CHEMBL1125663, “Function of negative charge in the "address domain" of deltorphins” (J Med Chem, 1991).
Square brackets hold non-standard residues; d marks the D form. Peptide text beside a SMILES is read from it.

How the values were obtained:
Type in all cases: cell membranes
[1] = biological target: T1, Mu-type opioid receptor (Rattus norvegicus, UniProt P33535); test: Binding affinity against Opioid receptor mu 1 in P2 membrane preparation of rat brain by [3H]DAGO displacement.
T1 sequence (P33535 whole entry): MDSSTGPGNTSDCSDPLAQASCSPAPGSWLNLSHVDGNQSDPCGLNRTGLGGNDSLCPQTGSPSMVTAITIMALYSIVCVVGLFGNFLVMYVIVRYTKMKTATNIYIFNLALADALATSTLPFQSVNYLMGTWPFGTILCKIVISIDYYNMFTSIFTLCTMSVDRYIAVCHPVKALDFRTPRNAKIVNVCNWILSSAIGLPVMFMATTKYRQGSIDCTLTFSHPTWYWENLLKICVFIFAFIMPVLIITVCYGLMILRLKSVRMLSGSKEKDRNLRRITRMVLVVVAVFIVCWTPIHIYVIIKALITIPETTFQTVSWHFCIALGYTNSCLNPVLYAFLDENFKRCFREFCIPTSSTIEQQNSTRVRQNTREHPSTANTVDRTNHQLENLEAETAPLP

[2] = biological target: T2, Delta-type opioid receptor (Rattus norvegicus, UniProt P33533); test: Binding affinity against Opioid receptor delta 1 in P2 membrane preparation of rat brain by [3H]DADLE displacement.
T2 sequence (P33533 whole entry): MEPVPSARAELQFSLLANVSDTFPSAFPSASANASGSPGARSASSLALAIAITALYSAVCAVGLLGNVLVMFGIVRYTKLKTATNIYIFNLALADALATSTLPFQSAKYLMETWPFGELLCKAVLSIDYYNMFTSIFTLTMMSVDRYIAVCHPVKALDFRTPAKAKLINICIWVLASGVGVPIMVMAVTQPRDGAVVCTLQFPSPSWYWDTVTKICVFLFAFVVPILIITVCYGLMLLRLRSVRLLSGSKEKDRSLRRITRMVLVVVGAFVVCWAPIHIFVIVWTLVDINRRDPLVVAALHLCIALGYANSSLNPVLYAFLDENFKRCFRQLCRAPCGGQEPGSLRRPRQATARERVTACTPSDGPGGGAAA

[3] = biological target: T1, Mu-type opioid receptor; test: Inhibition of [3H]DAGO binding to trat brain opioid receptor mu in P2 membrane
[4] = biological target: T2, Delta-type opioid receptor; test: Inhibition of [3H]-DADLE binding to opioid receptor delta in P2 membrane preparation of rat brain

## CSCC[C@H](NC(=O)[C@H](CC(C)C)NC(=O)[C@H](Cc1cnc[nH]1)NC(=O)[C@H](Cc1ccccc1)NC(=O)[C@@H](CCSC)NC(=O)[C@@H](N)Cc1ccc(O)cc1)C(=O)N[C@@H](CC(=O)O)C(C)=O
[1]
  Ki: 3220 nM
[2]
  Ki: 155 nM

## CC(C)[C@H](NC(=O)[C@H](CC(=O)O)NC(=O)[C@H](Cc1ccccc1)NC(=O)[C@H](C)NC(=O)[C@@H](N)Cc1ccc(O)cc1)C(=O)N[C@H](C(=O)NCC(=O)O)C(C)C
[1]
  Ki: 1640 nM
[2]
  Ki: 6.01 nM

## CCCC[C@H](NC(=O)[C@H](CC(C)C)NC(=O)[C@H](Cc1cnc[nH]1)NC(=O)[C@H](Cc1ccccc1)NC(=O)[C@@H](CCSC)NC(=O)[C@@H](N)Cc1ccc(O)cc1)C(=O)N[C@@H](CC(=O)O)C(N)=O
[1]
  Ki: 206 nM
[2]
  Ki: 0.22 nM

## CSCC[C@H](NC(=O)[C@H](CC(C)C)NC(=O)[C@H](CC(=O)O)NC(=O)[C@H](Cc1ccccc1)NC(=O)[C@@H](CCSC)NC(=O)[C@@H](N)Cc1ccc(O)cc1)C(=O)N[C@@H](CC(=O)O)C(N)=O
[1]
  Ki: 10600 nM
[2]
  Ki: 7.71 nM

## CSCC[C@H](NC(=O)[C@H](CC(C)C)NC(=O)[C@H](Cc1c[nH]cn1)NC(=O)[C@H](Cc1ccccc1)NC(=O)[C@@H](CCSC)NC(=O)[C@@H](N)Cc1ccc(O)cc1)C(=O)N[C@@H](CC(N)=O)C(N)=O
[1]
  Ki: 119 nM
[2]
  Ki: 0.22 nM

## CSCC[C@H](NC(=O)[C@H](CC(=O)O)NC(=O)[C@H](CC(=O)O)NC(=O)[C@H](Cc1ccccc1)NC(=O)[C@@H](CCSC)NC(=O)[C@@H](N)Cc1ccc(O)cc1)C(=O)N[C@@H](Cc1c[nH]cn1)C(N)=O
[1]
  Ki: 1570 nM
[2]
  Ki: 1900 nM

## CC(C)[C@H](NC(=O)[C@H](CCC(N)=O)NC(=O)[C@H](Cc1ccccc1)NC(=O)[C@@H](C)NC(=O)[C@@H](N)Cc1ccc(O)cc1)C(=O)N[C@H](C(=O)NCC(=O)O)C(C)C
[1]
  Ki: 153 nM
[2]
  Ki: 0.2 nM

## CSCC[C@@H](NC(=O)[C@@H](N)Cc1ccc(O)cc1)C(=O)N[C@@H](Cc1ccccc1)C(=O)N[C@@H](Cc1cnc[nH]1)C(=O)N[C@@H](CC(C)C)C(=O)N[C@@H](CC(=O)O)C(=O)N[C@@H](CC(=O)O)C(N)=O
[1]
  Ki: 3410 nM
[2]
  Ki: 3.08 nM

## CSCC[C@@H](NC(=O)[C@@H](N)Cc1ccc(O)cc1)C(=O)N[C@@H](Cc1ccccc1)C(=O)N[C@@H](Cc1cnc[nH]1)C(=O)N[C@@H](CC(C)C)C(=O)N[C@@H](CC(=O)O)C(=O)N[C@@H](CC(=O)O)C(=O)O
[1]
  Ki: 2090 nM
[2]
  Ki: 6.01 nM

## CC(C)[C@H](NC(=O)CNC(=O)[C@H](Cc1ccccc1)NC(=O)[C@H](C)NC(=O)[C@@H](N)Cc1ccc(O)cc1)C(=O)N[C@H](C(=O)N[C@@H](CC(=O)O)C(=O)O)C(C)C (H-YAFGVVD-OH)
[1]
  Ki: 57.5 nM
[2]
  Ki: 8.79 nM

## CC(C)[C@H](NC(=O)[C@H](CC(N)=O)NC(=O)[C@H](Cc1ccccc1)NC(=O)[C@H](C)NC(=O)[C@@H](N)Cc1ccc(O)cc1)C(=O)N[C@H](C(=O)NCC(N)=O)C(C)C (H-YAFNVVG-NH2)
[3]
  Ki: 176 nM
[4]
  Ki: 0.65 nM

## CC(C)[C@H](NC(=O)[C@H](CC(=O)O)NC(=O)[C@@H](NC(=O)[C@H](Cc1ccccc1)NC(=O)[C@H](C)NC(=O)[C@@H](N)Cc1ccc(O)cc1)C(C)C)C(=O)NCC(N)=O (H-YAFVDVG-NH2)
[1]
  Ki: 275 nM
[2]
  Ki: 1.23 nM

## CC(C)[C@H](NC(=O)[C@H](Cc1ccccc1)NC(=O)[C@H](C)NC(=O)[C@@H](N)Cc1ccc(O)cc1)C(=O)N[C@H](C(=O)N[C@@H](CC(=O)O)C(=O)NCC(N)=O)C(C)C (H-YAFVVDG-NH2)
[1]
  Ki: 149 nM
[2]
  Ki: 9.42 nM

## CSCC[C@H](NC(=O)[C@H](CC(C)C)NC(=O)[C@H](Cc1c[nH]cn1)NC(=O)[C@H](Cc1ccccc1)NC(=O)[C@@H](CCSC)NC(=O)[C@@H](N)Cc1ccc(O)cc1)C(=O)N[C@@H](CC(=O)O)C(=O)O (H-Y[dM]FHLMD-OH)
[1]
  Ki: 2690 nM
[2]
  Ki: 10.8 nM

## C[C@@H](NC(=O)[C@@H](N)Cc1ccc(O)cc1)C(=O)NCC(=O)N(C)[C@@H](Cc1ccccc1)C(=O)NCCO [DAMGO]
[2]
  Ki: 180 nM

## CSCC[C@H](NC(=O)[C@H](CC(C)C)NC(=O)[C@H](Cc1cnc[nH]1)NC(=O)[C@H](Cc1ccccc1)NC(=O)[C@@H](CCSC)NC(=O)[C@@H](N)Cc1ccc(O)cc1)C(=O)N[C@@H](CC(=O)O)C(N)=O [DELTORPHIN A] (H-Y[dM]FHLMD-NH2)
[1]
  Ki: 336 nM
[2]
  Ki: 0.12 nM

## CC(C)[C@H](NC(=O)[C@H](CC(=O)O)NC(=O)[C@H](Cc1ccccc1)NC(=O)[C@@H](C)NC(=O)[C@@H](N)Cc1ccc(O)cc1)C(=O)N[C@H](C(=O)NCC(N)=O)C(C)C [DELTORPHIN C]
[3]
  Ki: 387 nM
[4]
  Ki: 0.21 nM

## CC(C)[C@H](NC(=O)[C@H](CCC(=O)O)NC(=O)[C@H](Cc1ccccc1)NC(=O)[C@H](C)NC(=O)[C@@H](N)Cc1ccc(O)cc1)C(=O)N[C@H](C(=O)NCC(=O)O)C(C)C [DELTORPHINE II]
[4]
  Ki: 0.31 nM

## CC(C)[C@H](NC(=O)[C@H](CCC(=O)O)NC(=O)[C@H](Cc1ccccc1)NC(=O)[C@@H](C)NC(=O)[C@@H](N)Cc1ccc(O)cc1)C(=O)N[C@H](C(=O)NCC(=O)O)C(C)C [DELTORPHIN]
[4]
  Ki: 7.97 nM

## C[C@@H](NC(=O)[C@@H](N)Cc1ccc(O)cc1)C(=O)N[C@@H](Cc1ccccc1)C(=O)NCC(=O)N[C@@H](Cc1ccc(O)cc1)C(=O)N1CCC[C@H]1C(=O)N[C@@H](CO)C(N)=O [DERMORPHIN]
[1]
  Ki: 0.7 nM
